# Results reported in the supplement of paper PMC10331698.
# ± gives the standard deviation of the averaged measurements.
# Legend:
# Assay in all cases: level (log10 ratio to DMSO vehicle control); higher = higher biomarker level / cell amount than vehicle control
# Details in all cases: in DMSO
# Perfluorooctanoic acid = compound: O=C(O)C(F)(F)C(F)(F)C(F)(F)C(F)(F)C(F)(F)C(F)(F)C(F)(F)F [Perfluorooctanoic acid]
# Method: (§1)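 BioMAP Diversity Plus panel of 12 human primary cell co-culture systems (3C, 4H, LPS, SAg, BT, BF4T, BE3C, CASM3C, HDF3CGF, KF3CT, MyoF, Mphg). Compounds were added 1 h before stimulation and left for 24 h (MyoF 48 h; BT 72 h for soluble read-outs or 6 d for IgG). Biomarkers were read by ELISA, cytotoxicity by SRB, PBMC viability and proliferation by Alamar Blue. Each well value was divided by the mean of 8 DMSO control wells on the same plate and log10 transformed; duplicate blinded samples were tested at 4 concentrations.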
# Methotrexate = compound: CN(Cc1cnc2nc(N)nc(N)c2n1)c1ccc(C(=O)N[C@@H](CCC(=O)O)C(=O)O)cc1 [Methotrexate]
# Method: as §1
# [1] = compound: O=C(CC(=O)C(F)(F)C(F)(F)C(F)(F)F)c1cccs1 [(Perfluorobutyryl)-2-thenoylmethane]
# Method: as §1
# [2] = compound: OCC(F)(F)C(F)(F)C(F)(F)C(F)(F)C(F)(F)C(F)(F)C(F)(F)C(F)(F)CO [1H,1H,10H,10H-Perfluorodecane-1,10-diol]
# Method: as §1
# [3] = compound: O=C(Cl)C(F)(F)C(F)(F)C(F)(F)C(=O)Cl [Hexafluoroglutaryl chloride]
# Method: as §1
# [4] = compound: FC(F)(F)C(F)(F)C(F)(F)C(F)(F)CCI [1H,1H,2H,2H-Perfluorohexyl iodide]
# Method: as §1
# Perfluoropinacol = compound: OC(C(F)(F)F)(C(F)(F)F)C(O)(C(F)(F)F)C(F)(F)F [Perfluoropinacol]
# Method: as §1
Test System,level (log10) (Perfluorooctanoic acid; 6700 nM),level (log10) (Perfluorooctanoic acid; 20000 nM),level (log10) (Perfluorooctanoic acid; 60000 nM),level (log10) (Methotrexate; 1500 nM),level (log10) (Methotrexate; 4400 nM),level (log10) (Methotrexate; 13000 nM),level (log10) (Methotrexate; 40000 nM),level (log10) ([1]; 6700 nM),level (log10) ([1]; 20000 nM),level (log10) ([2]; 6700 nM),level (log10) ([2]; 20000 nM),level (log10) ([2]; 60000 nM),level (log10) ([3]; 6700 nM),level (log10) ([3]; 20000 nM),level (log10) ([3]; 60000 nM),level (log10) ([4]; 6700 nM),level (log10) ([4]; 20000 nM),level (log10) ([4]; 60000 nM),level (log10) (Perfluoropinacol; 6700 nM),level (log10) (Perfluoropinacol; 20000 nM)
HDF3CGF:CCL2/MCP-1,-0.0345 ± 0.044,-0.0305 ± 0.04,-0.0085 ± 0.057,-0.0395 ± 0.059,-0.0325 ± 0.093,-0.0425 ± 0.071,-0.0435 ± 0.11,-0.005 ± 0.011,-0.172 ± 0.014,-0.01,-0.0565 ± 0.036,-0.724,-0.036 ± 0.0099,-0.0285 ± 0.037,0.0095 ± 0.00071,-0.0045 ± 0.005,0.0155 ± 0.012,0.007 ± 0.021,0.0595 ± 0.0064,0.09 ± 0.0085
HDF3CGF:CD54/ICAM-1,0.005 ± 0.0057,0.0055 ± 0.011,-0.0035 ± 0.005,-0.0015 ± 0.00071,0.0045 ± 0.005,0.0055 ± 0.013,-0.0065 ± 0.025,-0.0475 ± 0.011,-0.0295 ± 0.0064,0.002 ± 0.027,0.005 ± 0.0028,-0.753,-0.0015 ± 0.0035,-0.007 ± 0.0042,-0.001 ± 0.0099,-0.023 ± 0.013,-0.0005 ± 0.005,-0.0085 ± 0.016,0.012 ± 0.011,0.005 ± 0.018
HDF3CGF:CD106/VCAM-1,-0.0055 ± 0.005,-0.011 ± 0.017,-0.024 ± 0.013,0.028 ± 0.031,0.01 ± 0.03,0.0355 ± 0.069,-0.0225 ± 0.1,-0.0405 ± 0.018,0.025 ± 0.0042,-0.038 ± 0.016,-0.0995 ± 0.073,-0.322,-0.013 ± 0.0085,0.0205 ± 0.049,-0.041 ± 0.014,-0.043 ± 0.082,-0.0425 ± 0.026,-0.168 ± 0.022,-0.089 ± 0.037,-0.228 ± 0.0014
HDF3CGF:CXCL8/IL-8,0.0015 ± 0.0021,0.002 ± 0.0014,0.015 ± 0.014,-0.0035 ± 0.011,-0.0075 ± 0.0064,0.0145 ± 0.0035,0.004 ± 0.0085,0.01 ± 0.0014,0.015 ± 0.0071,0.004 ± 0.013,-0.0055 ± 0.021,-0.081,0.0025 ± 0.012,-0.0015 ± 0.005,0.013 ± 0.018,0.003 ± 0.0057,-0.0025 ± 0.0035,0.0015 ± 0.011,0.025 ± 0.0071,0.02 ± 0.0028
HDF3CGF:CXCL9/MIG,0.001 ± 0.0057,-0.0245 ± 0.036,-0.0095 ± 0.028,0.002 ± 0.045,-0.003 ± 0.023,-0.0205 ± 0.036,-0.0165 ± 0.057,-0.0495 ± 0.012,-0.0855 ± 0.0064,0.012 ± 0.013,-0.037 ± 0.014,-0.789,0.0125 ± 0.018,-0.0055 ± 0.0064,0.0075 ± 0.012,0.0105 ± 0.028,0.007 ± 0.0085,-0.096 ± 0.016,-0.018 ± 0.018,-0.0675 ± 0.012
HDF3CGF:CXCL10/IP-10,-0.0035 ± 0.011,-0.017 ± 0.016,-0.03 ± 0.034,0.013 ± 0.0028,0.002 ± 0.0057,0.0035 ± 0.00071,-0.001 ± 0.016,-0.01,-0.141 ± 0.012,-0.0045 ± 0.028,-0.0355 ± 0.0035,-0.578,-0.013 ± 0.021,-0.01 ± 0.016,-0.0235 ± 0.0035,0.0045 ± 0.035,-0.0155 ± 0.0064,-0.069 ± 0.02,-0.0535 ± 0.023,-0.215 ± 0.012
HDF3CGF:CXCL11/I-TAC,-0.0205 ± 0.011,-0.016 ± 0.027,-0.007 ± 0.024,-0.0095 ± 0.013,-0.0105 ± 0.033,-0.008 ± 0.023,-0.018 ± 0.05,-0.014 ± 0.013,-0.114 ± 0.0092,0.013 ± 0.0042,-0.031 ± 0.025,-0.497,-0.015 ± 0.0057,-0.0145 ± 0.022,-0.0085 ± 0.013,0.006 ± 0.011,-0.0165 ± 0.012,-0.0835 ± 0.00071,-0.062 ± 0.041,-0.234 ± 0.015
HDF3CGF:Collagen I,-0.025 ± 0.0028,0.0005 ± 0.016,0.0395 ± 0.054,-0.0495 ± 0.079,-0.077 ± 0.083,-0.068 ± 0.095,-0.0415 ± 0.035,-0.0265 ± 0.04,-0.185 ± 0.0071,0.029 ± 0.0014,-0.01 ± 0.025,0.035,-0.025 ± 0.023,0.002,0.0065 ± 0.028,0.004 ± 0.047,-0.0205 ± 0.063,0.015 ± 0.11,-0.0205 ± 0.0092,-0.0685 ± 0.015
HDF3CGF:Collagen III,0.012 ± 0.011,0.0255 ± 0.0078,0.0155 ± 0.053,0.0115 ± 0.061,-0.002 ± 0.072,0.004 ± 0.013,-0.026 ± 0.086,0.0155 ± 0.013,-0.452 ± 0.0042,-0.035 ± 0.0071,-0.094 ± 0.045,-0.438,-0.027 ± 0.0028,-0.06 ± 0.031,-0.023 ± 0.028,-0.0145 ± 0.021,-0.0185 ± 0.052,-0.035 ± 0.047,0.0175 ± 0.0078,-0.0845 ± 0.0064
HDF3CGF:EGFR,-0.065 ± 0.086,-0.086 ± 0.028,-0.0965 ± 0.044,-0.0035 ± 0.018,-0.008 ± 0.0099,-0.011 ± 0.028,-0.021 ± 0.027,-0.101 ± 0.073,-0.0595 ± 0.018,-0.0015 ± 0.015,0.003 ± 0.023,-0.224,-0.0195 ± 0.012,-0.0115 ± 0.011,-0.01 ± 0.057,0.0025 ± 0.026,-0.006 ± 0.038,0.015 ± 0.047,-0.029 ± 0.057,-0.146 ± 0.038
HDF3CGF:M-CSF,-0.0205 ± 0.04,0.013 ± 0.0028,0.0235 ± 0.016,-0.051 ± 0.076,-0.0445 ± 0.077,-0.033 ± 0.1,-0.0655 ± 0.17,0.0085 ± 0.013,-0.001 ± 0.0028,0.0095 ± 0.035,0.001 ± 0.038,-0.304,-0.003 ± 0.02,-0.0035 ± 0.016,0 ± 0.0099,-0.015 ± 0.0085,-0.0295 ± 0.0064,-0.074 ± 0.014,-0.024 ± 0.055,-0.239 ± 0.049
HDF3CGF:MMP-1,-0.0155 ± 0.0064,-0.048 ± 0.0085,-0.035 ± 0.023,-0.0085 ± 0.005,-0.0135 ± 0.0021,0.0005 ± 0.0021,0.0065 ± 0.028,-0.0195 ± 0.0092,-0.0935 ± 0.0078,0.0025 ± 0.00071,0.005 ± 0.018,-0.299,0.0195 ± 0.012,0.013 ± 0.0042,0.018,-0.001 ± 0.0014,0.0085 ± 0.0035,0.0145 ± 0.018,0.024 ± 0.023,0.017 ± 0.014
HDF3CGF:PAI-I,0.02 ± 0.0071,0.0425 ± 0.019,0.088 ± 0.065,-0.0705 ± 0.14,-0.0725 ± 0.079,-0.0445 ± 0.079,-0.081 ± 0.16,0.0475 ± 0.052,-0.0845 ± 0.046,-0.0005 ± 0.0035,0.007 ± 0.0014,-0.564,-0.05 ± 0.073,-0.0215 ± 0.083,-0.0155 ± 0.043,0.002 ± 0.028,0.0045 ± 0.0035,-0.0105 ± 0.044,-0.0325 ± 0.012,-0.117 ± 0.0021
HDF3CGF:Proliferation 72hr,0.06 ± 0.041,0.15 ± 0.005,0.0875 ± 0.0078,-0.0885 ± 0.042,-0.076 ± 0.13,-0.0515 ± 0.036,-0.083 ± 0.05,-0.38 ± 0.0092,-0.485 ± 0.005,-0.0305 ± 0.046,-0.112 ± 0.05,-1.01,0.001 ± 0.0042,-0.0005 ± 0.012,-0.0095 ± 0.019,0.0275 ± 0.025,0.0095 ± 0.076,0.006 ± 0.04,-0.183 ± 0.044,-0.39 ± 0.05
